The text below walks through data of US9573899B2, “USP7 inhibitor compounds and methods of use” (Genentech, Inc., priority 2015, dated 2017).

Each structure is given as a SMILES string. A value given as a limit tells only on which side of the number the result lay.

The target of the test is T1, USP7, full-length, native C-Terminus (Homo sapiens, UniProt Q93009).
T1 construct: USP7, full-length, native C-Terminus, 0.2 nM
T1 sequence (Q93009 whole entry): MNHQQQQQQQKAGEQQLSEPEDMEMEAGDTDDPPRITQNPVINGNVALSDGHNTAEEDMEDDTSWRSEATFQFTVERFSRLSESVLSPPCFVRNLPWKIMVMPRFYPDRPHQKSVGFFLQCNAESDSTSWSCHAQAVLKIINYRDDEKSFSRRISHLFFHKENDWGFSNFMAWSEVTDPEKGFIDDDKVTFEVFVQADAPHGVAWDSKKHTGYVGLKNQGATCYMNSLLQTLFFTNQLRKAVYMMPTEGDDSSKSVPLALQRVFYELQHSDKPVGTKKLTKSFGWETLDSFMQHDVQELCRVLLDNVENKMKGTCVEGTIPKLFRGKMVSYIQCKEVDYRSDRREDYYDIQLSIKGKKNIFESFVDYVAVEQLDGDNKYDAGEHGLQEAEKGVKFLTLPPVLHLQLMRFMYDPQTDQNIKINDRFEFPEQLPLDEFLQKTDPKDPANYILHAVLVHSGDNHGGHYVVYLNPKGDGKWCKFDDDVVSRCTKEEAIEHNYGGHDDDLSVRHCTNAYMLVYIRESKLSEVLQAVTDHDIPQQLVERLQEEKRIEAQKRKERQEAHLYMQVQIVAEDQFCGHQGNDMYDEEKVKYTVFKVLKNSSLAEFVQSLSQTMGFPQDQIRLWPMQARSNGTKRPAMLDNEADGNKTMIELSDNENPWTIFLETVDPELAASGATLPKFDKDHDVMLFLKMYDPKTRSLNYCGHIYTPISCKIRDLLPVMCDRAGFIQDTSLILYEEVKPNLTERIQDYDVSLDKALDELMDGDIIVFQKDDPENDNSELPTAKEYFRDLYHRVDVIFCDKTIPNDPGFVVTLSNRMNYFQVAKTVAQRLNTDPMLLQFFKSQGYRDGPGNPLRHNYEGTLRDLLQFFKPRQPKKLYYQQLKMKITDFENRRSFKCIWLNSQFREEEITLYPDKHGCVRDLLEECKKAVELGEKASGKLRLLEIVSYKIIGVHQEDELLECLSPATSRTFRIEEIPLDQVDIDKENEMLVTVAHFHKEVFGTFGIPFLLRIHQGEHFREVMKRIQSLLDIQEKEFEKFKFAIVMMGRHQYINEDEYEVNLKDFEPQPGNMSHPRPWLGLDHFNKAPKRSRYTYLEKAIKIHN
The experiment in a line: Biochemical USP7 assay with Ubiquitin-Rho110 substrate, compounds pre-incubated with USP7 (USP7_Ub-Rho preInc). The conditions noted are these: compounds pre-mixed with USP7, 1 hour incubation, before substrate; read-out: USP7 Ub-Rho preInc (IC50). On the procedure: Biochemical USP7 assays using Ubiquitin-Rho110 as a substrate: The final assay conditions were as follows: The Reaction Buffer consisted of: 50 mM Tris (pH 7.5), 0.01% (v/v) Triton X-100, 2.5 mM Dithiothreitol, 0.1% (w/v) bovine gamma globulin (Sigma cat #G5009-25G); USP7, full-length, native C-Terminus, 0.2 nM; the substrate, Ubiquitin-Rho110 (Boston Biochem cat #U-555), 1 uM. Reactions were carried out for 1 hour at room temperature, in black 20 μL volume polystyrene ProxiPlate 384 F Plus® (PerkinElmer cat #6008260).
Test compounds, including a control USP7 inhibitor (Ub-aldehyde, Boston Biochem cat #U-201) were serially diluted in DMSO, in 384 well clear V-bottom polypropylene plates (Greiner cat #781280). Compounds in DMSO were diluted 10-fold into Reaction Buffer, to achieve 3-fold the final desired concentration. The substrate, Ubiquitin-Rho110 (Boston Biochem cat #U-555), was prepared at 3 μM (3-fold the final concentration) and 5 ul was dispensed into the reaction plate. 5 ul of the compounds (diluted in Reaction Buffer at 3-fold the final concentration) were transferred to the reaction plate. 5 ul of 0.6 nM USP7 (diluted in Reaction Buffer at 3-fold the final concentration) was transferred to the reaction plate to initiate the reaction. After 1 hour incubation at room temperature the reaction was quenched by the addition of 5 ul of 400 mM acetic acid. The enzymatic product was measured by quantifying the fluorescence signal of cleaved Rhodamine-110 using excitation at 485 nm and emission at 535 nm. When pre-incubation of USP7 with compounds was required, the order of addition of reagents was modified to pre-mix the compounds with USP7 (with a 1 hour incubation period), prior to the addition of the substrate and the initiation of the reaction period. Percentage inhibition values were calculated relative to a no enzyme control and a uninhibited enzyme control. Curve fitting and IC50 calculations were carried out using Genedata Screener software.
One may read the IC50 as the concentration that gives 50% inhibition. Regarding `CCc1c(-c2cccc(NC(C)=O)c2)cnc(N)c1-c1ccc2cn[nH]c2c1` [Compound 14, N-[3-[6-amino-4-ethyl-5-(1H-indazol-6-yl)-3-pyridyl]phenyl]acetamide], the IC50 came out at 136 µM.

On to `CCCNc1ncc(-c2ccc(O)cc2)c(CC)c1-c1ccc(O)cc1` [Compound 15, 4-[4-ethyl-5-(4-hydroxyphenyl)-6-(propylamino)-3-pyridyl]phenol], for which the IC50 is 10.1 µM. The same measure for `CCc1c(-c2ccc(O)cc2)cnc(N)c1-c1ccccc1` [Compound 16, 4-(6-amino-4-ethyl-5-phenyl-3-pyridyl)phenol]: 60.7 µM. `CCc1c(-c2ccc(O)cc2)cnc(N)c1-c1ccc(F)c(F)c1` [Compound 18, 4-[6-amino-5-(3,4-difluorophenyl)-4-ethyl-3-pyridyl]phenol]: the IC50 is > 20 µM. In the case of `CCc1c(-c2ccc(O)cc2)cnc(N)c1-c1cccc(C#N)c1` [Compound 19, 3-[2-amino-4-ethyl-5-(4-hydroxyphenyl)-3-pyridyl]benzonitrile], the IC50 was determined as 9.9 µM. The same measure for `CCc1c(-c2ccc(O)cc2)cnc(N)c1-c1ccc(NC(=O)OC(C)(C)C)cc1` [Compound 21, tert-butyl N-[4-[2-amino-4-ethyl-5-(4-hydroxyphenyl)-3-pyridyl]phenyl]carbamate]: > 20 µM. With `CCc1c(-c2ccc(O)cc2)cnc(N)c1-c1cccc(N2CCOCC2)c1` [Compound 22, 4-[6-amino-4-ethyl-5-(3-morpholinophenyl)-3-pyridyl]phenol], the IC50 is > 63.3 µM. Consider `CCc1c(-c2ccc(O)cc2)cnc(N)c1-c1cccc(CNC(=O)OC(C)(C)C)c1` [Compound 23, tert-butyl N-[[3-[2-amino-4-ethyl-5-(4-hydroxyphenyl)-3-pyridyl]phenyl]methyl]carbamate], for which the IC50 was > 6.3 µM. In the case of `CCc1c(-c2ccc(O)cc2)cnc(N)c1-c1cccc(COC)c1` [Compound 24, 4-[6-amino-4-ethyl-5-[3-(methoxymethyl)phenyl]-3-pyridyl]phenol], the IC50 was > 63.3 µM. For `CCc1c(-c2ccc(O)cc2)cnc(N)c1-c1cccc(CN2CCOCC2)c1` [Compound 26, 4-[6-amino-4-ethyl-5-[3-(morpholinomethyl)phenyl]-3-pyridyl]phenol], the IC50 came out at 145 µM. To `CCc1c(-c2ccc(O)cc2)cnc(N)c1-c1cccc(CC#N)c1` [Compound 27, 2-[3-[2-amino-4-ethyl-5-(4-hydroxyphenyl)-3-pyridyl]phenyl]acetonitrile] belongs 48.7 µM. Consider `CCc1c(-c2ccc(O)cc2)cnc(N)c1-c1ccc(N(C)C(=O)OC(C)(C)C)cc1` [Compound 28, tert-butyl N-[4-[2-amino-4-ethyl-5-(4-hydroxyphenyl)-3-pyridyl]phenyl]-N-methyl-carbamate], for which the IC50 is > 20 µM. The same measure for `CCc1c(-c2ccc(O)cc2)cnc(N)c1-c1cncc(C#N)c1` [Compound 29, 5-[2-amino-4-ethyl-5-(4-hydroxyphenyl)-3-pyridyl]pyridine-3-carbonitrile]: 18.6 µM; for `CCc1c(-c2ccc(O)cc2)cnc(N)c1-c1ccc(NS(C)(=O)=O)cc1` [Compound 30, N-[4-[2-amino-4-ethyl-5-(4-hydroxyphenyl)-3-pyridyl]phenyl]methanesulfonamide]: 19.6 µM; for `CCc1c(-c2ccc(O)cc2)cnc(N)c1-c1cccc(NC(=O)OC(C)(C)C)c1` [Compound 31, tert-butyl N-[3-[2-amino-4-ethyl-5-(4-hydroxyphenyl)-3-pyridyl]phenyl]carbamate]: > 20 µM. To `CCc1c(-c2cncnc2)cnc(N)c1-c1ccc(O)cc1` [Compound 32, 4-(2-amino-4-ethyl-5-pyrimidin-5-yl-3-pyridyl)phenol] belongs 69.9 µM. To `CCc1c(-c2ccccc2C)cnc(N)c1-c1ccc(O)cc1` [Compound 33, 4-[2-amino-4-ethyl-5-(o-tolyl)-3-pyridyl]phenol] belongs > 63.3 µM. Turning to `CCc1c(-c2ccc(F)cc2)cnc(N)c1-c1ccc(O)cc1` [Compound 34, 4-[2-amino-4-ethyl-5-(4-fluorophenyl)-3-pyridyl]phenol], the IC50 worked out at 19.9 µM.

On to `CCc1c(-c2ccc(C)nc2)cnc(N)c1-c1ccc(O)cc1` [Compound 35, 4-[2-amino-4-ethyl-5-(6-methyl-3-pyridyl)-3-pyridyl]phenol], for which the IC50 worked out at 31.2 µM. Take `CCc1c(-c2ccc(C)cc2)cnc(N)c1-c1ccc(O)cc1` [Compound 36, 4-[2-amino-4-ethyl-5-(p-tolyl)-3-pyridyl]phenol]: the IC50 worked out at 18.1 µM. The same measure for `CCc1c(-c2ccccc2)cnc(N)c1-c1ccc(O)cc1` [Compound 37, 4-(2-amino-4-ethyl-5-phenyl-3-pyridyl)phenol]: 17.8 µM; for `CCc1c(-c2ccncc2)cnc(N)c1-c1ccc(O)cc1` [Compound 38, 4-[2-amino-4-ethyl-5-(4-pyridyl)-3-pyridyl]phenol]: 52.4 µM. To `CCc1c(-c2cccnc2)cnc(N)c1-c1ccc(O)cc1` [Compound 39, 4-[2-amino-4-ethyl-5-(3-pyridyl)-3-pyridyl]phenol] belongs 41 µM. The same measure for `CCc1c(-c2ccc(O)cc2)cnc(NCC2CC2)c1-c1ccc(O)cc1` [Compound 40, 4-[6-(cyclopropylmethylamino)-4-ethyl-5-(4-hydroxyphenyl)-3-pyridyl]phenol]: 19.9 µM; for `CCc1c(-c2ccc(O)cc2)cnc(N)c1-c1cccc(NS(C)(=O)=O)c1` [Compound 41, N-[3-[2-amino-4-ethyl-5-(4-hydroxyphenyl)-3-pyridyl]phenyl]methanesulfonamide]: 118 µM; for `CCc1c(-c2cccc(N3CCNCC3)c2)cnc(N)c1-c1ccc(O)cc1` [Compound 42, 4-[2-amino-4-ethyl-5-(3-piperazin-1-ylphenyl)-3-pyridyl]phenol]: 165 µM. Regarding `CCc1c(-c2ccc(O)cc2)cnc(NC)c1-c1ccc(O)cc1` [Compound 43, 4-[4-ethyl-5-(4-hydroxyphenyl)-6-(methylamino)-3-pyridyl]phenol], the IC50 was determined as 6.8 µM. Take `CCc1c(-c2ccc(Cl)c(C)c2)cnc(N)c1-c1ccc(O)cc1` [Compound 44, 4-[2-amino-5-(4-chloro-3-methyl-phenyl)-4-ethyl-3-pyridyl]phenol]: the IC50 was > 20 µM. As to `CCc1c(-c2cccc(C(N)=O)c2)cnc(N)c1-c1ccc(O)cc1` [Compound 46, 3-[6-amino-4-ethyl-5-(4-hydroxyphenyl)-3-pyridyl]benzamide], the 50% inhibitory concentration (IC50) was found to be 114 µM. Turning to `CCc1c(-c2cccc(C(C)C)c2)cnc(N)c1-c1ccc(O)cc1` [Compound 47, 4-[2-amino-4-ethyl-5-(3-isopropylphenyl)-3-pyridyl]phenol], the IC50 is > 20 µM.

`CCc1c(-c2ccc(F)c(F)c2)cnc(N)c1-c1ccc(O)cc1` [Compound 48, 4-[2-amino-5-(3,4-difluorophenyl)-4-ethyl-3-pyridyl]phenol]: the IC50 turned out to be 11.6 µM. With `CCc1c(-c2cccc(C#N)c2)cnc(N)c1-c1ccc(O)cc1` [Compound 49, 3-[6-amino-4-ethyl-5-(4-hydroxyphenyl)-3-pyridyl]benzonitrile], the IC50 was 5.4 µM. On to `CCc1c(-c2ccccc2F)cnc(N)c1-c1ccc(O)cc1` [Compound 50, 4-[2-amino-4-ethyl-5-(2-fluorophenyl)-3-pyridyl]phenol], for which the IC50 is 14.2 µM.
